Measured values as given in patent US8889156B2, “Calcium-binding agents induce hair growth and/or nail growth” (priority 2009, dated 2014).

What was measured:
[1] = Nucleation of hydroxyapatite on tooth dentin (SBFn/SBFg, SEM); parameters: species or system human; conditions: nondemineralized dentin, 12.5 μM peptide
Protocol: To determine whether applying DSS to various preparations of tissue promoted HA nucleation, that could ultimately lead to tissue remineralization, sagittally sectioned adult human teeth (obtained after extraction during normal clinical practice) were polished using a Streurs grinding wheel, and prepared for nucleation experiments. Half of the sections were demineralized with 35% phosphoric acid for 15 minutes, then rinsed thoroughly with deionized water. The other half were left untreated. All samples were then sonicated for five minutes to remove excess debris left from cutting and grinding and/or demineralization. Samples were treated with 12.5 μM 8DSS dissolved in 50 mM HEPES buffer solution (pH 7.0), buffer solution only, or left untreated. Samples were then immersed into a simulated body fluid (SBFn), meant to accelerate nucleation of hydroxyapatite (HA) crystals, for 4 hours. Following the nucleation step, samples were immersed in a magnesium and bicarbonate free solution (SBFg) in order to allow the nucleated HA crystals to grow. […] Both solutions were adjusted to pH 6.8. Crystals were grown in order to amplify the nucleated crystals for easy visualization by SEM.

[2] = Binding of labeled peptide to sagittally sectioned adult human molars (CLSM, Example 6); conditions: fluorescein-labeled peptide, 10 min
Protocol: For binding experiments, sagittally sectioned adult human molars were incubated for 10 min in a solution of 12.5 p.M 5(6)-carboxyfluorescein-labeled 6DSS (SEQ ID NO:32) peptide containing 10 mM NaCl and 50 mM HEPES, pH 7.0. Control samples were prepared without peptide. Samples were rinsed after treatment and imaged by confocal laser scanning microscopy (CLSM) with illumination by a blue Kr/Ar laser (λ=488 nm) and a FITC emission filter. To test binding of DSS-containing peptides to biological tissue, sagittally sectioned human teeth were incubated treated with 6DSS (SEQ ID NO:32) (control samples were prepared without peptide), washed, and imaged by CLSM.

[3] = HA binding assay (pulldown of fluorescein-labeled peptides, Langmuir isotherm fit); conditions: fit of Langmuir equation
Protocol: Fluorescein-labeled DSS-containing peptides of various lengths were subjected to pulldown assays as follows: Samples containing varying concentrations of fluorescein-labeled peptide (0-100 μM) and a fixed amount (0.3 mg) of HA nanocrystals with a specific surface area of 100 m^2/g (Berkeley Advanced Biomaterials, Berkeley, Calif.) were prepared. Measurements were taken of the absorbance of the labeled peptide at 488 nm (the peak absorbance of the fluorescein label) before and after exposure to the HA. The amount of peptide bound was calculated by comparing the ratio of the final (Af) and initial (Ai) absorbances to the initial concentration (C0) [Cbound=(Af/Ai)C0]. Plots were generated of the amount of peptide bound per meter squared of HA surface area vs. concentration of unbound peptide at equilibrium. The resulting isotherms were fit to the Langmuir isotherm, x/m=(KANmaxCeq)/(1+KACeq), where x/m represents the molar amount of peptide bound per unit of HA surface area, KA is the affinity constant of the peptide for the HA surface (L/Mol), Nmax is the maximum surface concentration (mol/m^2), and Ceq is the molar concentration of unbound peptide at equilibrium (Calis et al. (1995) Pharm Res., 12: 1072-1076).
In order to quantitatively assess the strength of the DSS-HA interaction as well as to determine the roles of peptide length and sequence on binding, fluorescein-labeled, DSS-containing peptides of various lengths were subjected to pulldown assays as described in “Materials and Methods.”
The experimental data were fit to the Langmuir isotherm, which describes the binding of molecules to surfaces with the conditions that (1) all binding sites have the same affinity for the peptide and (2) the peptide will form a monolayer on the surface but cannot accumulate to higher levels (Atkins (1994) Physical chemistry. Freeman, New York). The excellent fit of the Langmuir isotherm to the experimental data validates these conditions, and the constants obtained from this analysis were used for comparisons between peptides. As shown in FIG. 7A and summarized in Table 6, both the binding affinity (KA) and the monolayer concentration (NMax) of the various peptides increased with the number of DSS repeats per peptide. Additionally, several variant peptides were tested (FIGS. 7B, 7C, Table 6): a peptide containing a longer side chain at the first position (4ESS (SEQ ID NO:34)), peptides containing a more sterically hindered hydroxyl group at the second and third positions (4DTT (SEQ ID NO:36), 4NTT (SEQ ID NO:38), 4ETT (SEQ ID NO:37)), peptides lacking a charged group at the first position (4NSS (SEQ ID NO:35), 8ASS (SEQ ID NO:26)), and peptides lacking hydroxyl groups at the second and third positions (DAA-8 (SEQ ID NO:40), 8NAA (SEQ ID NO:41)).

Substance: DSS DSS DSSDSS DSS DSS DSS DSS (DSSDSSDSSDSSDSSDSSDSSDSS; synthetic calcium-binding peptide 8DSS)
- crystal growth (nucleation) on dentin [1]: the most significant growth
- binding to dentin [2]: binds tightly to the dentin
- binding to enamel [2]: binding to the enamel almost completely absent
- Nmax (maximum monolayer surface concentration) [3]: 8.2 × 10^−8 ± 6 × 10^−9 mol/m^2
- KA (binding affinity for HA) ([3]; fluorescein-labeled peptide 0-100 μM, 0.3 mg HA nanocrystals): 290,000 ± 70,000 M^−1
